The NIST ThermoML archive (doi:10.1016/j.jct.2008.06.002)
Values joined by “and” are separate entries in the source; they are usually repeats but may differ in a detail not shown here. Identical values can stand only once.

Conditions: Liquid

CC(F)F [1,1-difluoroethane]
Conditions	vapor or sublimation pressure
253.68 K	115.2 kPa
258.44 K	142.2 kPa and 144 kPa
263.39 K	174.9 kPa
268.32 K	213.7 kPa
273.23 K	256.8 kPa
278.19 K	308.1 kPa
278.25 K	311.7 kPa
283.31 K	368.5 kPa
288.27 K	432.9 kPa
293.23 K	506.8 kPa
298.17 K	590.3 kPa
298.84 K	604.4 kPa
303.37 K	687.6 kPa
308.31 K	791 kPa
308.37 K	812.5 kPa
313.19 K	904.5 kPa
318.25 K	1034.8 kPa
323.26 K	1175.4 kPa
323.3 K	1185.5 kPa
328.12 K	1326.8 kPa
333.31 K	1502.3 kPa
338.19 K	1683.5 kPa
343.1 K	1879.6 kPa
343.2 K	1891.7 kPa
348.26 K	2104.6 kPa

O=C=O [carbon dioxide]
Conditions	vapor or sublimation pressure [kPa]
258.44 K	2294
278.25 K	3977
298.84 K	6502.6
